Experimental data taken from patent US10537563B2, “Methods for treating ocular disease using inhibitors of CSF-1R” (NOVARTIS AG, priority 2016, dated 2020).
pEC50: −log10 of the molar value.

Legend:
[1] = target: Aurora_A (Homo sapiens, UniProt O14965); experiment: In vitro kinase assay (Table 1); assay type: biochemical
[2] = target: Chk1 (Homo sapiens, UniProt O14757); experiment: In vitro kinase assay (Table 1); assay type: biochemical
[3] = target: Dyrk3 (Homo sapiens, UniProt O43781); experiment: In vitro kinase assay (Table 1); assay type: biochemical
[4] = target: FGFR2 (Homo sapiens, UniProt P21802); experiment: In vitro kinase assay (Table 1); assay type: biochemical
[5] = target: Fyn (Homo sapiens, UniProt P06241); experiment: In vitro kinase assay (Table 1); assay type: biochemical
[6] = target: Hyl (Homo sapiens, UniProt P42679); experiment: In vitro kinase assay (Table 1); assay type: biochemical
[7] = target: Nek2 (Homo sapiens, UniProt P51955); experiment: In vitro kinase assay (Table 1); assay type: biochemical
[8] = target: PIK3C_VPS34 (Homo sapiens, UniProt Q8NEB9); experiment: In vitro kinase assay (Table 1); assay type: biochemical
[9] = target: Pim2 (Homo sapiens, UniProt Q9P1W9); experiment: In vitro kinase assay (Table 1); assay type: biochemical
[10] = target: Src (Homo sapiens, UniProt P12931); experiment: In vitro kinase assay (Table 1); assay type: biochemical
[11] = target: ZAP70 (Homo sapiens, UniProt P43403); experiment: In vitro kinase assay (Table 1); assay type: biochemical
[12] = target: T1, PDGFRKalpha (h) (Homo sapiens, UniProt P16234); experiment: Kinase profiling at Invitrogen; assay type: biochemical
T1 construct: purchased Invitrogen

[13] = target: T2, PDGFRKalphaT674I (h) (Homo sapiens, UniProt P16234, T674I); experiment: Kinase profiling at Invitrogen; assay type: biochemical
T2 construct: purchased Invitrogen

[14] = target: T3, Khs1 (h) (Homo sapiens, UniProt Q9Y4K4); experiment: Kinase profiling at Invitrogen; assay type: biochemical
T3 construct: purchased Invitrogen

[15] = target: T4, BaF-NPM-ALK (Homo sapiens, UniProt Q9UM73); experiment: BaF3 proliferation assay; assay type: cell-based, murine
T4 construct: expressed in transfected cells; host or cells: BaF3 (murine pro-B cell line); the other entry of the earlier key: NPM1 (P06748, Nucleophosmin)

[16] = target: T5, BaF-Tel-FGFR3 (Homo sapiens, UniProt P22607); experiment: BaF3 proliferation assay; assay type: cell-based, murine
T5 construct: fused on or other part: P41212 (Transcription factor ETV6)

[17] = target: T6, BaF3-Tel-JAK2; clone1 (Homo sapiens, UniProt O60674); experiment: BaF3 proliferation assay; assay type: cell-based, murine
T6 construct: fused on or other part: P41212 (Transcription factor ETV6)

[18] = target: T7, BaF-Tel-KDR (Homo sapiens, UniProt P35968); experiment: BaF3 proliferation assay; assay type: cell-based, murine
T7 construct: fused on or other part: P41212 (Transcription factor ETV6)

[19] = target: T8, BAF/Tel-TIE2-1.2/sACP (Homo sapiens, UniProt Q02763); experiment: BaF3 proliferation assay; assay type: cell-based, murine
T8 construct: fused on or other part: P41212 (Transcription factor ETV6)

[20] = target: T9, BAF/Tel-FLT1-Q1/sACP (Homo sapiens, UniProt P17948); experiment: BaF3 proliferation assay; assay type: cell-based, murine
T9 construct: fused on or other part: P41212 (Transcription factor ETV6)

[21] = target: T10, BAF/Tel-FGFR4-Q4/sACP (Homo sapiens, UniProt P22455); experiment: BaF3 proliferation assay; assay type: cell-based, murine
T10 construct: fused on or other part: P41212 (Transcription factor ETV6)

[22] = target: T11, BAF/Tel-RET-Q1/sACP (Homo sapiens, UniProt P07949); experiment: BaF3 proliferation assay; assay type: cell-based, murine
T11 construct: fused on or other part: P41212 (Transcription factor ETV6)

[23] = target: T12, BAF/Tel-InsR-Q.4/sACP (Homo sapiens, UniProt P06213); experiment: BaF3 proliferation assay; assay type: cell-based, murine
T12 construct: fused on or other part: P41212 (Transcription factor ETV6)

[24] = target: T13, BAF/Tel-IGF1R-FL-N.1/sACP (Homo sapiens, UniProt P08069); experiment: BaF3 proliferation assay; assay type: cell-based, murine
T13 construct: BAF/Tel-IGF1R-FL- N.1/sACP; fused on or other part: P41212 (Transcription factor ETV6)

[25] = target: T14, BAF/Tel-Ros-1.1/sACP (Homo sapiens, UniProt P08922); experiment: BaF3 proliferation assay; assay type: cell-based, murine
T14 construct: fused on or other part: P41212 (Transcription factor ETV6)

[26] = target: T15, BAF/Tel-JAK3-S1.2/sACP (Homo sapiens, UniProt P52333); experiment: BaF3 proliferation assay; assay type: cell-based, murine
T15 construct: fused on or other part: P41212 (Transcription factor ETV6)

[27] = target: T16, BAF/Tel-JAK1-S1.2/sACP (Homo sapiens, UniProt P23458); experiment: BaF3 proliferation assay; assay type: cell-based, murine
T16 construct: fused on or other part: P41212 (Transcription factor ETV6)

[28] = target: T17, BAF/Tel-TYK2-1.3/sACP (Homo sapiens, UniProt P29597); experiment: BaF3 proliferation assay; assay type: cell-based, murine
T17 construct: fused on or other part: P41212 (Transcription factor ETV6)

[29] = target: T18, BAF/Tel-Src-3.1/sACP (Homo sapiens, UniProt P12931); experiment: BaF3 proliferation assay; assay type: cell-based, murine
T18 construct: fused on or other part: P41212 (Transcription factor ETV6)

[30] = target: T19, BAF/Tel-BMX-1.2/sACP (Homo sapiens, UniProt P51813); experiment: BaF3 proliferation assay; assay type: cell-based, murine
T19 construct: fused on or other part: P41212 (Transcription factor ETV6)

[31] = target: T20, BAF/Bcr-Abl-Luc/sACP (Homo sapiens, UniProt P00519); experiment: BaF3 proliferation assay; assay type: cell-based, murine
T20 construct: no part of the key; P11274 (Breakpoint cluster region protein)

[32] = target: T21, BAF/Tel-ZAP70-1.1/sACP (Homo sapiens, UniProt P43403); experiment: BaF3 proliferation assay; assay type: cell-based, murine
T21 construct: fused on or other part: P41212 (Transcription factor ETV6)

[33] = tested on: all other BaF3 cell lines; experiment: BaF3 proliferation assays, all other cell lines; assay type: cell-based, murine; details: Mus musculus, read-out: Cellular EC50, all other BaF3 cell lines

T1 sequence (P16234 24-1089): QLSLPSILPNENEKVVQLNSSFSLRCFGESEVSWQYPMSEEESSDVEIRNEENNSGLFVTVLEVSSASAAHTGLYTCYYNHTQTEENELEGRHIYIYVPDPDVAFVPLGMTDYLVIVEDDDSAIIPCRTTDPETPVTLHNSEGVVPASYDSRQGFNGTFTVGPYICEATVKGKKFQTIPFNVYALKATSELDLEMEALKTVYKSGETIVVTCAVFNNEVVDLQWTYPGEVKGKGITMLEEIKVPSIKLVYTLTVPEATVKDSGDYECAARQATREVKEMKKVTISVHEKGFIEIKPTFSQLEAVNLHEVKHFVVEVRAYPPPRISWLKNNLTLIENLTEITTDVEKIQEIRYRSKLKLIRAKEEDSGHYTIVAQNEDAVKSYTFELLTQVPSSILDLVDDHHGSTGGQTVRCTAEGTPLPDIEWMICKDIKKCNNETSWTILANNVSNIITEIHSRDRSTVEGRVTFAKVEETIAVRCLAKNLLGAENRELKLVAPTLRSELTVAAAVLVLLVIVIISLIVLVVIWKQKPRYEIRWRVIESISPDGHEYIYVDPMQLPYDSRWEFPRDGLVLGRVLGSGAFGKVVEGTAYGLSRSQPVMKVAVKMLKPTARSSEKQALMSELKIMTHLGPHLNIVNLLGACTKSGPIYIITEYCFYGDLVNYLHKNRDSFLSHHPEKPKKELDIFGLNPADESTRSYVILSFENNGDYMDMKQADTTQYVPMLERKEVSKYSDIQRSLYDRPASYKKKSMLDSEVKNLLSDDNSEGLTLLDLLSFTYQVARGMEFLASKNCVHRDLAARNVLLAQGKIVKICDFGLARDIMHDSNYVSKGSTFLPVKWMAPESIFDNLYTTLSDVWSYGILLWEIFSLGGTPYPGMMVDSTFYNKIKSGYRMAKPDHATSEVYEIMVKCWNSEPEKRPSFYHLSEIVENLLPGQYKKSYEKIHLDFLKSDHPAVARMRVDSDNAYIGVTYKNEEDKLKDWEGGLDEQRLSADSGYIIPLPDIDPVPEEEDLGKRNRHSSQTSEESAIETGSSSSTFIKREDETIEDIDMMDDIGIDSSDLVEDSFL
T2 sequence (P16234 550-1089 T674I limits assumed): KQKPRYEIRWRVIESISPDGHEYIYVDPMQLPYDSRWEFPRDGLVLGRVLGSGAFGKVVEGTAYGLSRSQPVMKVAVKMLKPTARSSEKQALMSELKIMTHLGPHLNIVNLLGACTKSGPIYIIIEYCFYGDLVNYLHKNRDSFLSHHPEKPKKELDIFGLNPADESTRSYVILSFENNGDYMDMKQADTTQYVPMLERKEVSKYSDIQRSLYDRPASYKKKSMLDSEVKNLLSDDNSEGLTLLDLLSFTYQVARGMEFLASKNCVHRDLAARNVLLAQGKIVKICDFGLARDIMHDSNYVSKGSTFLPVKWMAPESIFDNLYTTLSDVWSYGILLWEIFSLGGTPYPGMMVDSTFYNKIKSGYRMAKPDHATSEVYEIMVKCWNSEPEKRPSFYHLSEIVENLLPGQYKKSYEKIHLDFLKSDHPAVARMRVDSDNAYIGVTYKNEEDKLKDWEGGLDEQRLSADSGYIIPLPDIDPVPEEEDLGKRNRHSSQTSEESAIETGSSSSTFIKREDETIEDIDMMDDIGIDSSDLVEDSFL
T3 sequence (Q9Y4K4 whole entry): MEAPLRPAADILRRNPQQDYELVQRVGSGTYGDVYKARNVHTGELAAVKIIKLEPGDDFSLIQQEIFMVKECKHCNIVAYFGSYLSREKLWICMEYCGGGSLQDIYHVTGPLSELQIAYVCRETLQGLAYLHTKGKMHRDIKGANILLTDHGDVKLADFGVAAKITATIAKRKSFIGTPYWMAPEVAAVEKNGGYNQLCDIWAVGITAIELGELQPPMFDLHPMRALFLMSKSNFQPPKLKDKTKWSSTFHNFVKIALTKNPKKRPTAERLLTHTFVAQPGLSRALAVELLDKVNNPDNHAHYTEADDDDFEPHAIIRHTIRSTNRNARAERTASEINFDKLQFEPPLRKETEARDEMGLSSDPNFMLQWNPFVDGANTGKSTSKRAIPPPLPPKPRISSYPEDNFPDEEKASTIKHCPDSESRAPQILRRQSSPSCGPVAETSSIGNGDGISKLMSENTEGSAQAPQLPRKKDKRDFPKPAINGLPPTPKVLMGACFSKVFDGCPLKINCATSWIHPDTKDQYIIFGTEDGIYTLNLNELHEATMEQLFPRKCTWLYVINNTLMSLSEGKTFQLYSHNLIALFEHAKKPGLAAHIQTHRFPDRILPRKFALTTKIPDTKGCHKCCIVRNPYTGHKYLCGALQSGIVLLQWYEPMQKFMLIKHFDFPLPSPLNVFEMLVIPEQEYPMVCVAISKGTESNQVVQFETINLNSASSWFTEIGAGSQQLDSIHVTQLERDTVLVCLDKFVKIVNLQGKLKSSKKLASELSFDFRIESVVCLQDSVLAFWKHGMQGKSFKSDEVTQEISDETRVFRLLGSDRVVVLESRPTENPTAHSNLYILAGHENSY
T8 sequence (Q02763 824-1096 limits assumed, change not shown): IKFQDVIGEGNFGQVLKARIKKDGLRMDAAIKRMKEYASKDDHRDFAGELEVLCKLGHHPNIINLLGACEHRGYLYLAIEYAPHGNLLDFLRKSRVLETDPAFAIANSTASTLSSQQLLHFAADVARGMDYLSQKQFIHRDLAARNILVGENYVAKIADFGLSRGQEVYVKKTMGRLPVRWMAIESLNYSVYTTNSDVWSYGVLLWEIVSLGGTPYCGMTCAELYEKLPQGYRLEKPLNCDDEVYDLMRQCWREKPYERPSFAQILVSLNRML
T6 sequence (O60674 849-1132 limits assumed, change not shown): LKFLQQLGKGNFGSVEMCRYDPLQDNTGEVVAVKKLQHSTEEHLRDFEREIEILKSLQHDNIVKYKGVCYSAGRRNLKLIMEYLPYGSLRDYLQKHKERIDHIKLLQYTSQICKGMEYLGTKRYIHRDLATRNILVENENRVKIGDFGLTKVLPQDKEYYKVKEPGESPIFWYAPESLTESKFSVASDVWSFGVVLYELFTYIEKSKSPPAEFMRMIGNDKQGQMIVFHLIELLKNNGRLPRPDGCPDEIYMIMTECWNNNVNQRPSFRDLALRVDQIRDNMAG
T5 sequence (P22607 472-761 limits assumed, change not shown): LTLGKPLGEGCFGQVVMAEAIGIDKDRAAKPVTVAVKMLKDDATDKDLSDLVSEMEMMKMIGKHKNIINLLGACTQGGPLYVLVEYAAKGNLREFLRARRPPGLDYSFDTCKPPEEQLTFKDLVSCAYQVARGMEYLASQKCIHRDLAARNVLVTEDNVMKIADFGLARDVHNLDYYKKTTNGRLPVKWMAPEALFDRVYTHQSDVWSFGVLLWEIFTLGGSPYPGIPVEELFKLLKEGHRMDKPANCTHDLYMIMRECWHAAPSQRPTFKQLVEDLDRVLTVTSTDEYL
Chain of Nek2 (P51955 whole entry, species assumed): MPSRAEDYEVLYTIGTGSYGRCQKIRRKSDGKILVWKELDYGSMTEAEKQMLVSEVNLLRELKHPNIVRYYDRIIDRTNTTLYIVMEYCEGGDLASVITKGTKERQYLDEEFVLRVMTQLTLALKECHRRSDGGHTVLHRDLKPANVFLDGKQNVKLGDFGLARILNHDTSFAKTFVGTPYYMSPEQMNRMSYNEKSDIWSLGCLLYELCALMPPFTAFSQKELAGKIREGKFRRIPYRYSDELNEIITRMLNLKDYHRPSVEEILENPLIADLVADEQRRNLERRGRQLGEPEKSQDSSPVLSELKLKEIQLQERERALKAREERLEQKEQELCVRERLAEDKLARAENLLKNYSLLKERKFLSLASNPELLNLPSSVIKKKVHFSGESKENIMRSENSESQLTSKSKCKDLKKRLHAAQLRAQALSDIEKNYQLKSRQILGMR
T16 sequence (P23458 875-1154 limits assumed, change not shown): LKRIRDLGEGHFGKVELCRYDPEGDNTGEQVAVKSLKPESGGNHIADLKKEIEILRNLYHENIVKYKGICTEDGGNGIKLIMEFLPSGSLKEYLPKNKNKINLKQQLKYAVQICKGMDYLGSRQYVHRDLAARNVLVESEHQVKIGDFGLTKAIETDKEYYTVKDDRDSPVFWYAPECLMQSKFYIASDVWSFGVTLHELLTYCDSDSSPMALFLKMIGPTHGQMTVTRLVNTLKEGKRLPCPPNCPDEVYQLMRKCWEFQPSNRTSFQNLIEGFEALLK
Chain of Src (P12931 whole entry, species assumed): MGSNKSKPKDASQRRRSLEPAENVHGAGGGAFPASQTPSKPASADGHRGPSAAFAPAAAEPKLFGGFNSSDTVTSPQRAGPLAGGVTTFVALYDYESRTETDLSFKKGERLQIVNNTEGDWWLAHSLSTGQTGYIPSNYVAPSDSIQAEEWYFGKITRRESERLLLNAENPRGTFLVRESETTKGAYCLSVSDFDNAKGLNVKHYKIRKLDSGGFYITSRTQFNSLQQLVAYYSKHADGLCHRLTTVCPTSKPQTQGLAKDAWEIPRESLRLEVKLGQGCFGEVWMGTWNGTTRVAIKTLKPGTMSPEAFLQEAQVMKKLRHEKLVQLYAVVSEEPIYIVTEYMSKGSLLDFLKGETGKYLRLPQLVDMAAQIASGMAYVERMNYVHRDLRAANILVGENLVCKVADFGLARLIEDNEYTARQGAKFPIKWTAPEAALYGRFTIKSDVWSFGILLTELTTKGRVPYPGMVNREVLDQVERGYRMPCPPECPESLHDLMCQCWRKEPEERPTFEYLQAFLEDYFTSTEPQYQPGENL
T18 sequence (P12931 270-523 limits assumed, change not shown): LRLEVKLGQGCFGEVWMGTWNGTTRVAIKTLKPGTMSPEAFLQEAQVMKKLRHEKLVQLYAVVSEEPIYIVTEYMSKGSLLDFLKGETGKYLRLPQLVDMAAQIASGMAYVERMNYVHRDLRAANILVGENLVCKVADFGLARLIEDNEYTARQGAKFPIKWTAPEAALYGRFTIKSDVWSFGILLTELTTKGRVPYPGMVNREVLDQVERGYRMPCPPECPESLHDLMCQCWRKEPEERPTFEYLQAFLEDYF

Compound: CNC(=O)c1cc(Oc2ccc3nc(NC4CCCCC4O)sc3c2)ccn1 (stereo not drawn) [Compound (I)]
- IC50 [1]: > 10 µM
- IC50 [2]: > 10 µM
- IC50 [3]: > 10 µM
- IC50 [4]: > 10 µM
- IC50 [5]: > 10 µM
- IC50 [6]: > 10 µM
- IC50 [7]: > 10 µM
- IC50 [8]: > 25 µM
- IC50 [9]: > 25 µM
- IC50 [10]: > 10 µM
- IC50 [11]: > 10 µM
- inhibition at 0.5 µM ([12]; read-out: % inhibition @ 0.5 μM, PDGFRKalpha (h)): 28%
- inhibition at 5 µM ([12]; read-out: % inhibition @ 5 μM, PDGFRKalpha (h)): 41%
- inhibition at 20 µM ([12]; read-out: % inhibition @ 20 μM, PDGFRKalpha (h)): 55%
- inhibition at 0.5 µM ([13]; read-out: % inhibition @ 0.5 μM, PDGFRKalphaT674I (h)): -3%
- inhibition at 5 µM ([13]; read-out: % inhibition @ 5 μM, PDGFRKalphaT674I (h)): 2%
- inhibition at 20 µM ([13]; read-out: % inhibition @ 20 μM, PDGFRKalphaT674I (h)): 45%
- inhibition at 0.5 µM ([14]; read-out: % inhibition @ 0.5 μM, Khs1 (h)): 15%
- inhibition at 5 µM ([14]; read-out: % inhibition @ 5 μM, Khs1 (h)): 27%
- inhibition at 20 µM ([14]; read-out: % inhibition @ 20 μM, Khs1 (h)): 52%
- EC50 [15]: > 10 µM
- EC50 [16]: > 10 µM
- EC50 [17]: > 10 µM
- EC50 [18]: > 10 µM
- EC50 [19]: > 10 µM
- EC50 [20]: > 10 µM
- EC50 [21]: > 10 µM
- EC50 [22]: > 10 µM
- EC50 [23]: > 10 µM
- EC50 [24]: > 10 µM
- EC50 [25]: > 10 µM
- EC50 [26]: > 10 µM
- EC50 [27]: > 10 µM
- EC50 [28]: > 10 µM
- EC50 [29]: > 10 µM
- EC50 [30]: > 10 µM
- EC50 [31]: > 10 µM
- EC50 [32]: > 10 µM
- pEC50 [33]: < 5.00
